According to patent publication US20040186273A1 (V.I. Technologies, Inc., priority 2000, published 2004):

These substances were tested against PrPc from normal brain homogenate (Mesocricetus auratus, UniProt P04273).
Chain of PrPc from normal brain homogenate (P04273 23-231 limits assumed): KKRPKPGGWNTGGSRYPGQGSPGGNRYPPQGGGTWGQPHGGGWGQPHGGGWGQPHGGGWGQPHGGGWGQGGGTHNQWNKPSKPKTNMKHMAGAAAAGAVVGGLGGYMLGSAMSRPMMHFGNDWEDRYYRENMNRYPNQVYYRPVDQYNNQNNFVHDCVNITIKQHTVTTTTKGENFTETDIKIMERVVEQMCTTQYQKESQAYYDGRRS

| Substance | PrPc bound to resin (chemiluminescence signal, +3F4 vs -3F4) |
| --- | --- |
| IFFWIK [Peptide 112] | strongest binders |
| LLIWIP [Peptide 84] | not stable enough to resist the washing protocol |
| LRVIIS [Peptide 96] | much larger signal than the controls |
| RWIISL [Peptide 113] | strongest binders |
| VFEYIK [Peptide 115] | strongest binders |
| WLVWIA [Peptide 116] | strongest binders |
| WLYWIP [Peptide 85] | not stable enough to resist the washing protocol |

These substances were tested against prion from scrapie infected hamster brain (PrPsc) (Mesocricetus auratus, UniProt P04273).
Chain of prion from scrapie infected hamster brain (PrPsc) (P04273 23-231 limits assumed): as above

| Substance | binding of prion to resin (prion signal in flow through) | prion binding, dependence on copper |
| --- | --- | --- |
| GFFFWW [Peptide 89] | bound all prion | – |
| HHHPQT [Peptide 55] | let prion flow through | appears to bind prion only in the absence of copper |
| IQIWIF [Peptide 110] | bound to the column | – |
| RYHVYF [Peptide 71] | bound all prion | – |
| YVFNWY [Peptide 87] | bound all prion | – |
| acetyl (dF)LLHPI [Peptide 76] | failed to bind all prion | – |

The substances below were run against prion from infected hamster brain spiked into plasma (Mesocricetus auratus, UniProt P04273).
Chain of prion from infected hamster brain spiked into plasma (P04273 23-231 limits assumed): as above

| Substance | binding of prion to resin (prion signal in flow through) |
| --- | --- |
| IQIWIF [Peptide 110] | bound all prion |
| acetyl (dF)LLHPI [Peptide 75, reference compound] | did not bind prion strongly enough to retain all detectable protein |
| acetylated (dR)YHVYF [Peptide 83, reference compound] | bound all prion |
